Data: patent US20110263693A1, “CELASTROL, GEDUNIN, AND DERIVATIVES THEREOF AS HSP90 INHIBITORS” (DANA-FARBER CANCER INSTITUTE, INC., priority 2006, published 2011)

Tests used:
[1] = test system: celastrol signature; experiment: Connectivity Map query with the celastrol signature; type: cell-based, human; set-up: key to celastrol score (connectivity score): connectivity score, based on Kolmogorov-Smirnov statistic; details: for celastrol score (connectivity score): enrichment of the celastrol signature (1.25 μM celastrol at 6 h, LNCaP) in the compound's Connectivity Map profiles, 6 hr treatment; for celastrol rank: rank by celastrol score among 164 Connectivity Map compounds
Description: (§1) Indeed, a major challenge in cell-based chemical biology and chemical genomics is the identification of compounds' targets (Gardner et al., 2003). We hypothesized that gene expression signatures could be used to identify compound action based on the similarity of such compound-induced signatures to signatures of existing drugs of known mechanism. We therefore employed a collection of gene expression profiles of drug-treated cell lines that was developed in our lab, termed the Connectivity Map (Lamb et al., 2006). This database comprises 453 genome-wide Affymetrix expression profiles derived from the treatment of human cell lines with 164 small molecules, primarily FDA-approved drugs. A 6 hr treatment time was chosen in an attempt to capture the primary, and potentially mechanistic, effects of the compounds rather than the downstream phenotypic consequences.
(§2) In order to use the Connectivity Map to gain insight into celastrol and gedunin function, we first defined a gene expression signature of celastrol and gedunin activity. The expression signatures of celastrol and gedunin were derived by expression profiling of RNA from LNCaP cells treated with celastrol (1.25 μM), gedunin (20 μM), and vehicle (DMSO) for 6 hr; signatures were defined using comparative marker selection to identify transcripts that distinguished between the compound- and vehicle-treated profiles by the signal-to-noise (SNR) metric. The enrichment of these signatures in the gene expression profiles of the Connectivity Map database was then assessed using a gene enrichment metric, the connectivity score, based on the Kolmogorov-Smirnov statistic (Lamb et al., 2003).
(§3) The celastrol and gedunin signatures were developed from RMA-processed microarray data from LNCaP cells treated with 1.25 μM celastrol or 20 μM gedunin for 6 hours. Comparative marker selection was used to identify markers that distinguished celastrol- and/or gedunin-treated samples from vehicle-treated samples by the median SNR (Golub et al., 1999). The top 50 markers that increased and decreased relative to vehicle-treated controls were used as the signatures.
(§4) The current version of the Connectivity Map data set (build01) contains genome-wide expression data for 453 treatment and vehicle control pairs, representing 164 distinct small molecules. Cell treatments and Affymetrix profiling were predominantly carried out in MCF7 cells with 6 hr treatments as detailed (Table 4) (Lamb et al., 2006). Enrichment of the induced and repressed genes of a signature within each Connectivity Map treatment profile was estimated with a metric based on the Kolmogorov-Smirnov statistic as described (Lamb et al., 2003, Lamb et al., 2006). Connectivity Map data are available at www.broad.mit.edu/cmap/ and GEO (accession number GSE5258).
(§5) For the celastrol and gedunin signatures, RMA-processed data was filtered and thresholded (min fold change=2, min absolute change=50, floor=10, ceiling=16000). Comparative marker selection (GenePattern) was used to identify markers that distinguished celastrol- and/or gedunin-treated samples from vehicle-treated samples by the median SNR. The top fifty markers that increased and decreased relative to vehicle treated controls were used as the celastrol, gedunin, or joint celastrol/gedunin signatures.
(§6) The current version of The Connectivity Map dataset (build01) contains genome-wide expression data for 453 treatment and vehicle control pairs, representing 164 distinct small molecules. Cell treatments were predominantly carried out in the MCF7 cell line for 6 h as detailed in Table 4. Affymetrix profiling was then carried out as described (Lamb et al., 2006).

[2] = test system: gedunin signature; experiment: Connectivity Map query with the gedunin signature; type: cell-based, human; set-up: key to gedunin score (connectivity score): connectivity score, based on Kolmogorov-Smirnov statistic; details: for gedunin score (connectivity score): enrichment of the gedunin signature (20 μM gedunin at 6 hours, LNCaP) in the compound's Connectivity Map profiles, 6 hr treatment; for gedunin rank: rank by gedunin score among 164 Connectivity Map compounds
Description: as §1, §2, §3, §4, §5, §6

Row | Structure (SMILES) | celastrol score (connectivity score) [1] | gedunin score (connectivity score) [2] | celastrol rank [1] | gedunin rank [2]
1 | CC(=O)O[C@H]1C(=O)[C@@]2(C)[C@H]([C@H](OC(=O)c3ccccc3)[C@]3(O)C[C@H](OC(=O)[C@H](O)[C@@H](NC(=O)c4ccccc4)c4ccccc4)C(C)=C1C3(C)C)[C@]1(OC(C)=O)CO[C@@H]1C[C@@H]2O [paclitaxel] | 0.319 | 0 | – | –
2 | N=C1C=CC(=C(c2ccc(N)cc2)c2ccc(N)cc2)C=C1 [pararosaniline] | 0.579 | 0.496 | – | –
3 | N=C(N)c1ccc(OCCCCCOc2ccc(C(=N)N)cc2)cc1 [pentamidine] | 0 | 0.456 | – | –
4 | O=c1[nH]c2ccccc2c2ccccc12 [phenanthridinone] | 0.429 | −1 | 32 | 164
5 | [H]/N=C(/N)N/C(=N/[H])NCCc1ccccc1 [phenformin] | 0.355 | 0 | – | –
6 | Cc1ccc(N(CC2=NCCN2)c2cccc(O)c2)cc1 [phentolamine] | 0 | 0 | – | –
7 | N=C(N)NC(N)=Nc1ccccc1 [phenyl biguanide] | 0 | 0 | – | –
8 | Cc1cccc(Nc2cc(Cl)nc(SCC(=O)O)n2)c1C [pirinixic acid] | 0.226 | 0.055 | – | –
9 | C[C@]12C=CC(=O)C=C1CC[C@@H]1[C@@H]2[C@@H](O)C[C@@]2(C)[C@H]1CC[C@]2(O)C(=O)CO [prednisolone] | 0 | 0 | – | –
10 | CC(C)(Sc1cc(C(C)(C)C)c(O)c(C(C)(C)C)c1)Sc1cc(C(C)(C)C)c(O)c(C(C)(C)C)c1 [probucol] | 0.332 | 0 | – | –
11 | CN1CCN(CCCN2c3ccccc3Sc3ccc(Cl)cc32)CC1 [prochlorperazine] | 0.559 | 0.507 | – | –
12 | O=c1c(O)c(-c2ccc(O)c(O)c2)oc2cc(O)cc(O)c12 [quercetin] | −0.111 | −0.431 | – | –
13 | O=C(c1ccc(OCCN2CCCCC2)cc1)c1c(-c2ccc(O)cc2)sc2cc(O)ccc12 [raloxifene] | 0 | 0.292 | – | –
14 | Oc1ccc(C=Cc2cc(O)cc(O)c2)cc1 [resveratrol] | 0.266 | 0.4 | – | –
15 | CS(=O)(=O)c1ccc(C2=C(c3ccccc3)C(=O)OC2)cc1 [rofecoxib] | 0.088 | 0.148 | – | –
16 | CN(CCOc1ccc(CC2SC(=O)NC2=O)cc1)c1ccccn1 (stereo not drawn) [rosiglitazone] | 0.098 | 0 | – | –
17 | CC(=O)c1c(O)c(C)c(O)c(Cc2c(O)c3c(c(C(=O)/C=C/c4ccccc4)c2O)OC(C)(C)C=C3)c1O [rottlerin] | 0.355 | 0.209 | – | –
18 | CO[C@H]1C[C@@H]2CC[C@@H](C)[C@@](O)(O2)C(=O)C(=O)N2CCCC[C@H]2C(=O)O[C@H]([C@H](C)C[C@@H]2CC[C@@H](O)[C@H](OC)C2)CC(=O)[C@H](C)/C=C(\C)[C@@H](O)[C@@H](OC)C(=O)[C@H](C)C[C@H](C)/C=C/C=C/C=C/1C [sirolimus] | −0.283 | 0 | – | –
19 | O=C1CCc2c(ccc3ccccc23)O1 [splitomicin] | −0.525 | 0 | – | –
20 | CN[C@@H]1C[C@H]2O[C@@](C)([C@@H]1OC)n1c3ccccc3c3c4c(c5c6ccccc6n2c5c31)C(=O)NC4 [staurosporine] | 0.092 | 0 | – | –
21 | O=C(O)c1cc(/N=N/c2ccc(S(=O)(=O)Nc3ccccn3)cc2)ccc1O [sulfasalazine] | 0 | 0 | – | –

Row | Structure (SMILES) | celastrol score (connectivity score) [1] | gedunin score (connectivity score) [2] | celastrol rank [1] | gedunin rank [2]
22 | CSc1ccc(/C=C2/C(C)=C(CC(=O)O)c3cc(F)ccc32)cc1 [sulindac sulfide] | 0 | 0 | – | –
23 | CC1=C(CC(=O)O)c2cc(F)ccc2/C1=C\c1ccc([S+](C)[O-])cc1 (stereo not drawn) [sulindac] | 0.207 | 0.177 | – | –
24 | C=CC[C@@H]1/C=C(\C)C[C@H](C)C[C@H](OC)[C@H]2O[C@@](O)(C(=O)C(=O)N3CCCC[C@H]3C(=O)O[C@H](/C(C)=C/[C@@H]3CC[C@@H](O)[C@H](OC)C3)[C@H](C)[C@@H](O)CC1=O)[C@H](C)C[C@@H]2OC [tacrolimus] | 0 | 0 | – | –
25 | CC/C(=C(\c1ccccc1)c1ccc(OCCN(C)C)cc1)c1ccccc1 [tamoxifen] | 0 | 0.216 | – | –
26 | NCCNCCNCCNCCN [tetraethylenepentamine] | −0.039 | −0.092 | – | –
27 | O=C1CCC(N2C(=O)c3ccccc3C2=O)C(=O)N1 (stereo not drawn) [thalidomide] | −0.256 | 0.121 | – | –
28 | CSc1ccc2c(c1)N(CCC1CCCCN1C)c1ccccc1S2 (stereo not drawn) [thioridazine] | 0.308 | 0.522 | – | –
29 | Nc1nc2nc[nH]c2c(=S)[nH]1 [tioguanine] | 0 | −0.613 | – | –
30 | CCCCNC(=O)NS(=O)(=O)c1ccc(C)cc1 [tolbutamide] | 0.497 | 0 | – | –
31 | CCCc1c(OCCCCc2nnn[nH]2)ccc(C(C)=O)c1O [tomelukast] | 0.388 | 0 | – | –
32 | CC1(C)O[C@@H]2[C@@H](CO[C@@]3(COS(N)(=O)=O)OC(C)(C)O[C@@H]23)O1 [topiramate] | 0 | 0 | – | –
33 | CC1=C(/C=C/C(C)=C/C=C/C(C)=C/C(=O)O)C(C)(C)CCC1 [tretinoin] | −0.084 | −0.206 | – | –
34 | CC(/C=C/C(=O)NO)=C\[C@@H](C)C(=O)c1ccc(N(C)C)cc1 [trichostatin A] | −0.02 | 0.427 | 141 | 29
35 | Cc1c(C)c2c(c(C)c1O)CCC(C)(COc1ccc(CC3SC(=O)NC3=O)cc1)O2 (stereo not drawn) [troglitazone] | 0.42 | 0.167 | – | –
36 | COc1cc(/C=C(\C#N)C(N)=O)cc(CSc2nc3ccccc3s2)c1O [tyrphostin AG-825] | 0 | 0 | 137 | 141
37 | COc1cc2ncnc(Nc3cccc(Cl)c3)c2cc1OC [tyrphostin AG-1478] | 0 | 0.529 | 127 | 14
38 | CCCC(CCC)C(=O)O [valproic acid] | 0.086 | 0.136 | – | –
39 | O=C(CCCCCCC(=O)Nc1ccccc1)NO [vorinostat] | 0 | 0.554 | – | –
40 | COC[C@H]1OC(=O)c2coc3c2[C@@]1(C)C1=C(C3=O)[C@@H]2CCC(=O)[C@@]2(C)C[C@H]1OC(C)=O [wortmannin] | −0.324 | 0.126 | – | –
41 | COC(=O)[C@@H]1[C@H]2C[C@H]3c4[nH]c5ccccc5c4CCN3C[C@@H]2CC[C@@H]1O [yohimbine] | 0 | 0 | – | –
